This is an account of results in patent US20250270200A1, “CTPS1 INHIBITORS AND USES THEREOF” (Nimbus Clotho, Inc., priority 2022, published 2025).

Each structure is given as a SMILES string. Some results are limits rather than exact numbers.

One assay concerns the target T1, human CTPS1 (Homo sapiens, UniProt P17812).
T1 sequence (P17812 1-591): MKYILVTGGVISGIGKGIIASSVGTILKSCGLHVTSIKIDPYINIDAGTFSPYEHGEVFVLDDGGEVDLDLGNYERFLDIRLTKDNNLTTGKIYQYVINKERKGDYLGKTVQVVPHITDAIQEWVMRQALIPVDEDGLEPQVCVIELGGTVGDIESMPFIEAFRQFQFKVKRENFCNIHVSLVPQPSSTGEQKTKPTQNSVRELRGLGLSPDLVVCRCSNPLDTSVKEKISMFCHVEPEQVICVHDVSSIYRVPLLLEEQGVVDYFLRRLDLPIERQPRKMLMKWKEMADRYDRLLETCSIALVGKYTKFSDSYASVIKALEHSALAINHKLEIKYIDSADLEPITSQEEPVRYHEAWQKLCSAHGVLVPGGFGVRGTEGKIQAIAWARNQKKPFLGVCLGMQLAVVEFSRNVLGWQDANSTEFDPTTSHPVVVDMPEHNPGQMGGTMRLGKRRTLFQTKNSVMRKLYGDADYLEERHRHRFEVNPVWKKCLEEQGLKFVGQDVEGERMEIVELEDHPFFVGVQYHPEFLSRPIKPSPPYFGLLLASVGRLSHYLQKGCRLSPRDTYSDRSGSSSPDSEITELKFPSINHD
As to the kind of experiment: ADP-Glo assay, human CTPS1 enzyme inhibition. The assay is classed as biochemical. Particulars: wild-type human CTPS1 25 nM; ATP 120 μM, UTP 160 μM, GTP 60 μM, L-glutamine 100 μM; 25 degrees C.; read-out: ADP-Glo_WT_hCTPS1—25 nM_IC50 (IC50). Put shortly: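 Full-length tagged human CTPS1 (25 nM) pre-incubated 10 min at 25° C with compound, then 10 min with ATP (120 μM) and UTP (160 μM); reaction started with L-glutamine (100 μM) and GTP (60 μM), 1% DMSO, in HEPES pH 7.4, 10 mM Mg2+, 5 mM KCl, 2 mM DTT. Run within linear phase at 25° C; ADP measured by ADP-Glo luminescence.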
(ADP-Glo turns the ADP formed in a reaction into a luminescent signal.)
In the case of `COC[C@H](NC(=O)c1ncc(-c2cnn3ccc(Cl)cc23)s1)c1nccc(NS(=O)(=O)C2CC2)c1F` (single isomer, unassigned) [II-1], the IC50 lay in the range of 5 to 25 nM.

Still in this assay, the particulars now being: wild-type human CTPS1, 25 nM enzyme; ADP-Glo; read-out: ADP-Glo_WT_hCTPS1—25 nM_IC50 (IC50).
Consider `CCOc1cncc(-c2cnc(C(=O)N[C@@H](c3cccc(NS(=O)(=O)C(F)F)c3)[C@@H]3COCCO3)s2)n1` [I-200, N-((S)-(3-((difluoromethyl)sulfonamido)phenyl)((R)-1,4-dioxan-2-yl)methyl)-5-(6-ethoxypyrazin-2-yl)thiazole-2-carboxamide], for which the IC50 is 5 to 25 nM. Turning to `CCOc1cncc(-c2cnc(C(=O)N[C@@H](CCN3CCCCC3)c3cccc(NS(=O)(=O)C(F)F)c3)s2)n1` [I-183, (S)-N-(1-(3-((difluoromethyl)sulfonamido)phenyl)-3-(piperidin-1-yl)propyl)-5-(6-ethoxypyrazin-2-yl)thiazole-2-carboxamide], the IC50 is more than 100 nM. As to `CCOc1cncc(-c2cnc(C(=O)N[C@@H](c3cc(NS(=O)(=O)C4CC4)ncn3)[C@@H]3CCOC3)s2)n1` [I-257, N-((R)-(6-(cyclopropanesulfonamido)pyrimidin-4-yl)((S)-tetrahydrofuran-3-yl)methyl)-5-(6-ethoxypyrazin-2-yl)thiazole-2-carboxamide], the IC50 lay in the range of 5 to 25 nM.

Turning to `CCOc1cncc(-c2cnc(C(=O)N[C@@H](c3cc(NS(=O)(=O)C4CC4)ccn3)[C@H]3CCN(CCF)C3)s2)n1` [I-110, N-((R)-(4-(cyclopropanesulfonamido)pyridin-2-yl)((S)-1-(2-fluoroethyl)pyrrolidin-3-yl)methyl)-5-(6-ethoxypyrazin-2-yl)thiazole-2-carboxamide], the IC50 is not above 5 nM. Still for that read-out and setting: next, `O=C(N[C@H](c1cc(NS(=O)(=O)C2CC2)ccn1)[C@H]1CCOC1)c1ncc(-c2cnn3ccc(Cl)cc23)s1` (single isomer, unassigned) [I-22]: 5 to 25 nM; `CCOc1cncc(-c2cnc(C(=O)N[C@@H](CN3[C@@H]4CC[C@H]3COC4)c3cc(NS(=O)(=O)C4CC4)ccn3)s2)n1` (single isomer, unassigned) [I-36]: 50 to 100 nM. Consider `CCOc1cncc(-c2cnc(C(=O)N[C@@H](c3cc(NS(=O)(=O)C4CC4)ccn3)[C@@H]3C[C@@H]4CC[C@H]3O4)s2)n1` [I-81, N-((R)-((1R,2S,4S)-7-oxabicyclo[2.2.1]heptan-2-yl)(4-(cyclopropanesulfonamido)pyridin-2-yl)methyl)-5-(6-ethoxypyrazin-2-yl)thiazole-2-carboxamide], for which the half-maximal inhibitory concentration (IC50) is not above 5 nM. On the same count and under the same terms, next, `CCOc1cncc(-c2cnc(C(=O)N[C@H](CN(C)C)c3cccc(NS(=O)(=O)C(F)F)c3)s2)n1` [I-213, (S)-N-(1-(3-((difluoromethyl)sulfonamido)phenyl)-2-(dimethylamino)ethyl)-5-(6-ethoxypyrazin-2-yl)thiazole-2-carboxamide]: 5 to 25 nM; `CCOc1cncc(-c2cnc(C(=O)N[C@H](c3cc(NS(=O)(=O)C4CC4)ccn3)[C@H]3CCCN3C)s2)n1` [I-116, N-((S)-(4-(cyclopropanesulfonamido)pyridin-2-yl)((R)-1-methylpyrrolidin-2-yl)methyl)-5-(6-ethoxypyrazin-2-yl)thiazole-2-carboxamide]: 25 to 50 nM. For `CCOc1cncc(-c2cnc(C(=O)N[C@H](CO)c3cc(NS(=O)(=O)C4CC4)ccn3)s2)n1` [I-263, (S)-N-(1-(4-(cyclopropanesulfonamido)pyridin-2-yl)-2-hydroxyethyl)-5-(6-ethoxypyrazin-2-yl)thiazole-2-carboxamide], the IC50 fell in the range of 5 to 25 nM. Regarding `CCOc1cncc(-c2cnc(C(=O)N[C@H](CN3CC[C@@](C)(O)C3)c3cccc(NS(=O)(=O)C(F)F)c3)s2)n1` [I-207, N-((S)-1-(3-((difluoromethyl)sulfonamido)phenyl)-2-((R)-3-hydroxy-3-methylpyrrolidin-1-yl)ethyl)-5-(6-ethoxypyrazin-2-yl)thiazole-2-carboxamide], the IC50 fell in the range of 25 to 50 nM. As to `CCOc1cncc(-c2cnc(C(=O)N[C@H](C[C@H]3CCCCN3C(C)C)c3cc(NS(=O)(=O)C4CC4)ccn3)s2)n1` (single isomer, unassigned) [I-27], the IC50 was in the range of 5 to 25 nM. The same measure, in the same setting: next, `CCOc1cncc(-c2cnc(C(=O)N[C@H](Cn3ccnn3)c3cccc(NS(=O)(=O)C(F)F)c3)s2)n1` [I-215, (S)-N-(1-(3-((difluoromethyl)sulfonamido)phenyl)-2-(1H-1,2,3-triazol-1-yl)ethyl)-5-(6-ethoxypyrazin-2-yl)thiazole-2-carboxamide]: 5 to 25 nM; `CCOc1cncc(-c2cnc(C(=O)N[C@]3(c4cc(NS(=O)(=O)C5CC5)ccn4)C[C@@H](O)C3)s2)n1` [I-88, N-((1r,3r)-1-(4-(cyclopropanesulfonamido)pyridin-2-yl)-3-hydroxycyclobutyl)-5-(6-ethoxypyrazin-2-yl)thiazole-2-carboxamide]: not above 5 nM. The same measure, in the same setting: next, `CCOc1cncc(-c2cnc(C(=O)N[C@H](CC3COCCN3C)c3cccc(NS(=O)(=O)C(F)F)c3)s2)n1` (stereo partly drawn) [I-193, N-((1R)-1-(3-((difluoromethyl)sulfonamido)phenyl)-2-(4-methylmorpholin-3-yl)ethyl)-5-(6-ethoxypyrazin-2-yl)thiazole-2-carboxamide]: 50 to 100 nM. In the case of `O=C(N[C@H](c1cc(NS(=O)(=O)C2CC2)ccn1)C1CCOCC1)c1ncc(-c2cnn3ccc(Cl)cc23)s1` [I-85, (S)-5-(5-chloropyrazolo[1,5-a]pyridin-3-yl)-N-((4-(cyclopropanesulfonamido)pyridin-2-yl)(tetrahydro-2H-pyran-4-yl)methyl)thiazole-2-carboxamide], the IC50 was in the range of 25 to 50 nM.

With `CCOc1cncc(-c2cnc(C(=O)N[C@H](CN3C[C@H]4CC[C@@H]3C4)c3cccc(NS(=O)(=O)C(F)F)c3)s2)n1` [I-211, N-((S)-2-((1R,4S)-2-azabicyclo[2.2.1]heptan-2-yl)-1-(3-((difluoromethyl)sulfonamido)phenyl)ethyl)-5-(6-ethoxypyrazin-2-yl)thiazole-2-carboxamide], the IC50 is 50 to 100 nM. Still for that read-out and setting: next, `CCOc1cncc(-c2ccc(C(=O)N[C@H](c3cc(NS(=O)(=O)C4CC4)ccn3)[C@@H]3CCCO3)nc2)n1` [I-68, N-((R)-(4-(cyclopropanesulfonamido)pyridin-2-yl)((S)-tetrahydrofuran-2-yl)methyl)-5-(6-ethoxypyrazin-2-yl)picolinamide]: 25 to 50 nM; `CCOc1cncc(-c2cnc(C(=O)N[C@H](Cn3ccnn3)c3cc(NS(=O)(=O)C4CC4)ccn3)s2)n1` [I-156, (R)-N-(1-(4-(cyclopropanesulfonamido)pyridin-2-yl)-2-(1H-1,2,3-triazol-1-yl)ethyl)-5-(6-ethoxypyrazin-2-yl)thiazole-2-carboxamide]: 5 to 25 nM. Consider `CCOc1cncc(-c2cnc(C(=O)N[C@]3(c4cccc(NS(=O)(=O)C(F)F)c4)C[C@@H](O)C3)s2)n1` [I-203, N-((1r,3r)-1-(3-((difluoromethyl)sulfonamido)phenyl)-3-hydroxycyclobutyl)-5-(6-ethoxypyrazin-2-yl)thiazole-2-carboxamide], for which the IC50 is 5 to 25 nM. On the same count and under the same terms, next, `CCOc1cncc(-c2cnc(C(=O)N[C@@H](c3cc(NS(=O)(=O)C4CC4)ccn3)[C@@H]3CCN(C4CC4)C3)s2)n1` [I-114, N-((R)-(4-(cyclopropanesulfonamido)pyridin-2-yl)((R)-1-cyclopropylpyrrolidin-3-yl)methyl)-5-(6-ethoxypyrazin-2-yl)thiazole-2-carboxamide]: 5 to 25 nM; `CCOc1cncc(-c2cnc(C(=O)N[C@@H](c3cccc(NS(=O)(=O)C(F)F)c3)C(C)(C)O)s2)n1` [I-290, (S)-N-(1-(3-((difluoromethyl)sulfonamido)phenyl)-2-hydroxy-2-methylpropyl)-5-(6-ethoxypyrazin-2-yl)thiazole-2-carboxamide]: 5 to 25 nM. Same read-out and setting: next, `CCOc1cncc(-c2cnc(C(=O)N[C@H](CO[C@@H]3CCOC3)c3cc(NS(=O)(=O)C4CC4)ccn3)s2)n1` [I-240, N-((S)-1-(4-(cyclopropanesulfonamido)pyridin-2-yl)-2-(((R)-tetrahydrofuran-3-yl)oxy)ethyl)-5-(6-ethoxypyrazin-2-yl)thiazole-2-carboxamide]: 5 to 25 nM. Same read-out and setting: next, `CCOc1cncc(-c2cnc(C(=O)N[C@H](c3cc(NS(=O)(=O)C4CC4)ccn3)C3CCOCC3)s2)n1` [I-20, (S)—N-((4-(cyclopropanesulfonamido)pyridin-2-yl)(tetrahydro-2H-pyran-4-yl)methyl)-5-(6-ethoxypyrazin-2-yl)thiazole-2-carboxamide]: 5 to 25 nM; `CCOc1cncc(-c2cnc(C(=O)N[C@H](c3cc(NS(=O)(=O)C4CC4)ccn3)[C@H](C)O)s2)n1` [I-266, N-((1R,2S)-1-(4-(cyclopropanesulfonamido)pyridin-2-yl)-2-hydroxypropyl)-5-(6-ethoxypyrazin-2-yl)thiazole-2-carboxamide]: 5 to 25 nM.

The term IC50 denotes the concentration at which inhibition is half-maximal.
